{"source": "patent US20050209157A1", "about": "“Short bioactive peptides and methods for their use” (priority 2001, published 2005)", "key": {"[1]": {"test_system": "P. aeruginosa H374", "type": "cell-based, Pseudomonas aeruginosa", "conditions": "Table 14; in µg/mL"}, "[2]": {"test_system": "Candida albicans 105", "type": "cell-based", "conditions": "Table 15; in µg/mL"}, "[3]": {"test_system": "S. epidermidis C621", "type": "cell-based, Staphylococcus epidermidis", "conditions": "Table 15"}, "[4]": {"test_system": "Pseudomonas aeruginosa H187", "type": "cell-based", "conditions": "Table 15; in µg/mL"}, "[5]": {"test_system": "S. typhimurium 14028S", "type": "cell-based, Salmonella typhimurium", "conditions": "Table 14"}, "[6]": {"test_system": "E. coli UB1005", "type": "cell-based, Escherichia coli", "conditions": "Table 14"}, "[7]": {"test_system": "S. aureus (MRSA)", "type": "cell-based, Staphylococcus aureus", "conditions": "Table 15, strain SAP0017; in µg/mL"}}, "note": "No end group written: not given here."}
{"substance": "FKRLAKIKVLRLAKIKR-NH2 [P147 (109)]", "values": [{"measurement": "MIC P. aeruginosa H374", "setting": "[1]", "value": 128}, {"measurement": "MIC C. albicans 105", "setting": "[2]", "value": 64}, {"measurement": "MIC S. epidermidis C621", "setting": "[3]", "value": 64, "unit": "µg/mL"}, {"measurement": "MIC P. aeruginosa H187", "setting": "[4]", "value": ">128"}, {"measurement": "MIC S. typhimurium 14028S", "setting": "[5]", "value": 128, "unit": "µg/mL"}, {"measurement": "MIC E. coli UB1005", "setting": "[6]", "value": 64, "unit": "µg/mL"}, {"measurement": "MIC S. aureus SAP0017", "setting": "[7]", "value": ">128"}]}
{"substance": "FAKLLFKALKKAL-NH2 [P112 (76)]", "values": [{"measurement": "MIC P. aeruginosa H374", "setting": "[1]", "value": ">128"}, {"measurement": "MIC C. albicans 105", "setting": "[2]", "value": 128}, {"measurement": "MIC S. epidermidis C621", "setting": "[3]", "value": 64, "unit": "µg/mL"}, {"measurement": "MIC P. aeruginosa H187", "setting": "[4]", "value": ">128"}, {"measurement": "MIC S. typhimurium 14028S", "setting": "[5]", "value": "> 128", "unit": "µg/mL"}, {"measurement": "MIC E. coli UB1005", "setting": "[6]", "value": "> 128", "unit": "µg/mL"}, {"measurement": "MIC S. aureus SAP0017", "setting": "[7]", "value": ">128"}]}
{"substance": "FAKLFAKLAKKFAL-NH2 [P121 (83)]", "values": [{"measurement": "MIC P. aeruginosa H374", "setting": "[1]", "value": ">128"}, {"measurement": "MIC C. albicans 105", "setting": "[2]", "value": 64}, {"measurement": "MIC S. epidermidis C621", "setting": "[3]", "value": "> 128", "unit": "µg/mL"}, {"measurement": "MIC P. aeruginosa H187", "setting": "[4]", "value": ">128"}, {"measurement": "MIC S. typhimurium 14028S", "setting": "[5]", "value": "> 128", "unit": "µg/mL"}, {"measurement": "MIC E. coli UB1005", "setting": "[6]", "value": "> 128", "unit": "µg/mL"}, {"measurement": "MIC S. aureus SAP0017", "setting": "[7]", "value": ">128"}]}
{"substance": "FALLKALKKAL-NH2 [P171 (132)]", "values": [{"measurement": "MIC P. aeruginosa H374", "setting": "[1]", "value": ">128"}, {"measurement": "MIC C. albicans 105", "setting": "[2]", "value": ">128"}, {"measurement": "MIC S. epidermidis C621", "setting": "[3]", "value": 128, "unit": "µg/mL"}, {"measurement": "MIC P. aeruginosa H187", "setting": "[4]", "value": ">128"}, {"measurement": "MIC S. typhimurium 14028S", "setting": "[5]", "value": "> 128", "unit": "µg/mL"}, {"measurement": "MIC E. coli UB1005", "setting": "[6]", "value": 32, "unit": "µg/mL"}, {"measurement": "MIC S. aureus SAP0017", "setting": "[7]", "value": ">128"}]}
{"substance": "FAKLLAKLAKKEL-NH2 [P126 (88)]", "values": [{"measurement": "MIC P. aeruginosa H374", "setting": "[1]", "value": ">128"}, {"measurement": "MIC C. albicans 105", "setting": "[2]", "value": ">128"}, {"measurement": "MIC S. epidermidis C621", "setting": "[3]", "value": "> 128", "unit": "µg/mL"}, {"measurement": "MIC P. aeruginosa H187", "setting": "[4]", "value": ">128"}, {"measurement": "MIC S. typhimurium 14028S", "setting": "[5]", "value": "> 128", "unit": "µg/mL"}, {"measurement": "MIC E. coli UB1005", "setting": "[6]", "value": "> 128", "unit": "µg/mL"}, {"measurement": "MIC S. aureus SAP0017", "setting": "[7]", "value": ">128"}]}
{"substance": "FAKLAKKALAKLL-NH2 [P148 (110)]", "values": [{"measurement": "MIC P. aeruginosa H374", "setting": "[1]", "value": ">128"}, {"measurement": "MIC C. albicans 105", "setting": "[2]", "value": 128}, {"measurement": "MIC S. epidermidis C621", "setting": "[3]", "value": 128, "unit": "µg/mL"}, {"measurement": "MIC P. aeruginosa H187", "setting": "[4]", "value": ">128"}, {"measurement": "MIC S. typhimurium 14028S", "setting": "[5]", "value": "> 128", "unit": "µg/mL"}, {"measurement": "MIC E. coli UB1005", "setting": "[6]", "value": 128, "unit": "µg/mL"}, {"measurement": "MIC S. aureus SAP0017", "setting": "[7]", "value": ">128"}]}
{"substance": "FGKGIGKVGKKLL-NH2 [P132 (94)]", "values": [{"measurement": "MIC P. aeruginosa H374", "setting": "[1]", "value": ">128"}, {"measurement": "MIC C. albicans 105", "setting": "[2]", "value": 128}, {"measurement": "MIC S. epidermidis C621", "setting": "[3]", "value": "> 128", "unit": "µg/mL"}, {"measurement": "MIC P. aeruginosa H187", "setting": "[4]", "value": ">128"}, {"measurement": "MIC S. typhimurium 14028S", "setting": "[5]", "value": "> 128", "unit": "µg/mL"}, {"measurement": "MIC E. coli UB1005", "setting": "[6]", "value": 128, "unit": "µg/mL"}, {"measurement": "MIC S. aureus SAP0017", "setting": "[7]", "value": ">128"}]}
{"substance": "FAKLLAKLAKKSL-NH2 [P127 (89)]", "values": [{"measurement": "MIC P. aeruginosa H374", "setting": "[1]", "value": ">128"}, {"measurement": "MIC C. albicans 105", "setting": "[2]", "value": 32}, {"measurement": "MIC S. epidermidis C621", "setting": "[3]", "value": 64, "unit": "µg/mL"}, {"measurement": "MIC P. aeruginosa H187", "setting": "[4]", "value": ">128"}, {"measurement": "MIC S. typhimurium 14028S", "setting": "[5]", "value": "> 128", "unit": "µg/mL"}, {"measurement": "MIC E. coli UB1005", "setting": "[6]", "value": 128, "unit": "µg/mL"}, {"measurement": "MIC S. aureus SAP0017", "setting": "[7]", "value": ">128"}]}
{"substance": "FAKLLAKAFKKAL-NH2 [P114 (78)]", "values": [{"measurement": "MIC P. aeruginosa H374", "setting": "[1]", "value": ">128"}, {"measurement": "MIC C. albicans 105", "setting": "[2]", "value": 64}, {"measurement": "MIC S. epidermidis C621", "setting": "[3]", "value": 64, "unit": "µg/mL"}, {"measurement": "MIC P. aeruginosa H187", "setting": "[4]", "value": ">128"}, {"measurement": "MIC S. typhimurium 14028S", "setting": "[5]", "value": 128, "unit": "µg/mL"}, {"measurement": "MIC E. coli UB1005", "setting": "[6]", "value": 32, "unit": "µg/mL"}, {"measurement": "MIC S. aureus SAP0017", "setting": "[7]", "value": ">128"}]}
{"substance": "KWKLAKKALALL-NH2 [P142 (104)]", "values": [{"measurement": "MIC P. aeruginosa H374", "setting": "[1]", "value": ">128"}, {"measurement": "MIC C. albicans 105", "setting": "[2]", "value": 64}, {"measurement": "MIC S. epidermidis C621", "setting": "[3]", "value": 128, "unit": "µg/mL"}, {"measurement": "MIC P. aeruginosa H187", "setting": "[4]", "value": ">128"}, {"measurement": "MIC S. typhimurium 14028S", "setting": "[5]", "value": 128, "unit": "µg/mL"}, {"measurement": "MIC E. coli UB1005", "setting": "[6]", "value": 64, "unit": "µg/mL"}, {"measurement": "MIC S. aureus SAP0017", "setting": "[7]", "value": ">128"}]}
{"substance": "FALAKALKKAL-NH2 [P166 (127)]", "values": [{"measurement": "MIC P. aeruginosa H374", "setting": "[1]", "value": ">128"}, {"measurement": "MIC C. albicans 105", "setting": "[2]", "value": ">128"}, {"measurement": "MIC S. epidermidis C621", "setting": "[3]", "value": "> 128", "unit": "µg/mL"}, {"measurement": "MIC P. aeruginosa H187", "setting": "[4]", "value": ">128"}, {"measurement": "MIC S. typhimurium 14028S", "setting": "[5]", "value": "> 128", "unit": "µg/mL"}, {"measurement": "MIC E. coli UB1005", "setting": "[6]", "value": "> 128", "unit": "µg/mL"}, {"measurement": "MIC S. aureus SAP0017", "setting": "[7]", "value": ">128"}]}
{"substance": "VALALKALKKL-NH2 [P180 (141)]", "values": [{"measurement": "MIC P. aeruginosa H374", "setting": "[1]", "value": ">128"}, {"measurement": "MIC C. albicans 105", "setting": "[2]", "value": ">128"}, {"measurement": "MIC S. epidermidis C621", "setting": "[3]", "value": "> 128", "unit": "µg/mL"}, {"measurement": "MIC P. aeruginosa H187", "setting": "[4]", "value": ">128"}, {"measurement": "MIC S. typhimurium 14028S", "setting": "[5]", "value": "> 128", "unit": "µg/mL"}, {"measurement": "MIC E. coli UB1005", "setting": "[6]", "value": "> 128", "unit": "µg/mL"}, {"measurement": "MIC S. aureus SAP0017", "setting": "[7]", "value": ">128"}]}
{"substance": "FAKLLAKLAKAKG-NH2 [P96 (62)]", "values": [{"measurement": "MIC P. aeruginosa H374", "setting": "[1]", "value": ">128"}, {"measurement": "MIC C. albicans 105", "setting": "[2]", "value": ">128"}, {"measurement": "MIC S. epidermidis C621", "setting": "[3]", "value": "> 128", "unit": "µg/mL"}, {"measurement": "MIC P. aeruginosa H187", "setting": "[4]", "value": ">128"}, {"measurement": "MIC S. typhimurium 14028S", "setting": "[5]", "value": "> 128", "unit": "µg/mL"}, {"measurement": "MIC E. coli UB1005", "setting": "[6]", "value": "> 128", "unit": "µg/mL"}, {"measurement": "MIC S. aureus SAP0017", "setting": "[7]", "value": ">128"}]}
